The values below come from patent publication US10633342B2, “Inhibitors of indoleamine 2,3-dioxygenase and methods of their use” (BRISTOL-MYERS SQUIBB COMPANY, priority 2016, dated 2020).

The IC50 is the point on the concentration scale where inhibition reaches its midpoint.

Some results are limits rather than exact numbers.

The target in this assay is T1, human IDO1 (Homo sapiens, UniProt P14902).
T1 construct: expressed in transfected cells
T1 sequence (P14902 whole entry): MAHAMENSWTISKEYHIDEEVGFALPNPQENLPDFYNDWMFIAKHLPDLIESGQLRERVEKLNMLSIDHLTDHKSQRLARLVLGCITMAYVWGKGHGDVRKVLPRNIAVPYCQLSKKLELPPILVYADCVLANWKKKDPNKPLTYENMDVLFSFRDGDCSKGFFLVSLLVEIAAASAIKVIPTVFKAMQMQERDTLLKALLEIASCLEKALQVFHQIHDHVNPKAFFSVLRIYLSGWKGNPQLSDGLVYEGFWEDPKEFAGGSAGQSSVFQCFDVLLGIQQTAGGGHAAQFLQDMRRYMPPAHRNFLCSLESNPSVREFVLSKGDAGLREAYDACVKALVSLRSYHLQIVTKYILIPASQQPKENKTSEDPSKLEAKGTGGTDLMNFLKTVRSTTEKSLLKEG
Description: HEK Human IDO-1 inhibition assay (kynurenine, Ehrlich reagent, absorbance 490 nm). Format: cell-based. Conditions: human IDO1/HEK293 cells, 20 hours incubation; read-out: HEK Human IDO-1 Bio Activity (IDO IC50). On the procedure: HEK293 cells were transfected with a pCDNA-based mammalian expression vector harboring human IDO1 cDNA (NM 002164.2) by electroporation. They were cultured in medium (DMEM with 10% FBS) containing 1 mg/ml G418 for two weeks. Clones of HEK293 cells that stably expressed human IDO1 protein were selected and expanded for IDO inhibition assay.
The human IDO1/HEK293 cells were seeded at 10,000 cells per 50 μL per well with RPMI/phenol red free media contains 10% FBS in a 384-well black wall clear bottom tissue culture plate (Matrix Technologies LLC) 100 nL of certain concentration of compound was then added to each well using ECHO liquid handling systems. The cells were incubated for 20 hours in 37° C. incubator with 5% CO2.
The compound treatments were stopped by adding trichloroacetic acid (Sigma-Aldrich) to a final concentration at 0.2%. The cell plate was further incubated at 50° C. for 30 minute. The equal volume supernatant (20 μL) and 0.2% (w/v) Ehrlich reagent (4-dimethylaminobenzaldehyde, Sigma-Aldrich) in glacial acetic acid were mixed in a new clear bottom 384-well plate. This plate was then incubated at room temperature for 30 minute. The absorbance at 490 nm was measured on Envision plate reader.
Compound IC50 values were calculated using the counts of 500 nM of a reference standard treatment as one hundred percent inhibition, and counts of no compound but DMSO treatment as zero percent inhibition.
For the molecule `C[C@@H](NC(=O)Cc1ccc(Cl)cc1)[C@H]1CC[C@@H](c2ccnc3ccc(F)cc32)CC1` [Example 5, 2-(4-chlorophenyl)-N-((R)-1-((1s,4S)-4-(6-fluoroquinolin-4-yl)cyclohexyl)ethyl)acetamide], the IC50 was less than 1000 nM.
Take `C[C@@H](NC(=O)C12CCC(Cl)(CC1)CC2)[C@H]1CC[C@@H](c2ccnc3ccc(F)cc32)CC1` [Example 14, 4-chloro-N—((R)-1-((cis)-4-(6-fluoroquinolin-4-yl)cyclohexyl)ethyl)bicyclo [2.2.2]octane-1-carboxamide]: the IC50 is less than 100 nM.
In the case of `C[C@@H](NC(=O)C1CCC1)[C@H]1CC[C@@H](c2ccnc3ccc(F)cc32)CC1` [Example 20, N-((R)-1-((1s,4S)-4-(6-fluoroquinolin-4-yl)cyclohexyl)ethyl)-cyclobutanecarboxamide], the IC50 is less than 1000 nM.
Regarding `C[C@@H](NC(=O)C1CC(F)(F)C1)[C@H]1CC[C@@H](c2ccnc3ccc(F)cc32)CC1` [Example 17, 3,3-difluoro-N-((R)-1-((1s,4S)-4-(6-fluoroquinolin-4-yl)cyclohexyl)ethyl)-cyclobutanecarboxamide], the IC50 is less than 1000 nM.
The result for `C[C@@H](NC(=O)C1CCCCC1)[C@H]1CC[C@@H](c2ccnc3ccc(F)cc32)CC1` [Example 15, N-((R)-1-((1s,4S)-4-(6-fluoroquinolin-4-yl)cyclohexyl)ethyl)-cyclohexanecarboxamide] reads less than 100 nM; that for `C[C@@H](C(=O)N[C@H](C)[C@H]1CC[C@@H](c2ccnc3ccc(F)cc32)CC1)c1ccccc1` [Example 9, (R)-N-((R)-1-((1s,4S)-4-(6-fluoroquinolin-4-yl)cyclohexyl)ethyl)-2-phenylpropanamide], less than 1000 nM.
Take `C[C@H](C(=O)N[C@H](C)[C@H]1CC[C@@H](c2ccnc3ccc(F)cc32)CC1)c1ccccc1` [Example 8, (S)-N-((R)-1-((1s,4S)-4-(6-fluoroquinolin-4-yl)cyclohexyl)ethyl)-2-phenylpropanamide]: the IC50 is less than 1000 nM.
The result for `C[C@@H](NC(=O)[C@H]1CC[C@H](O)CC1)[C@H]1CC[C@@H](c2ccnc3ccc(F)cc32)CC1` [Example 22, (1r,4R)-N-((R)-1-((1s,4S)-4-(6-fluoroquinolin-4-y1)cyclohexyl)ethyl)-4-hydroxycxclohexanecarboxamide] reads less than 1000 nM; that for `C[C@@H](NC(=O)[C@H]1C[C@H](F)C1)[C@H]1CC[C@@H](c2ccnc3ccc(F)cc32)CC1` [Example 18, (1r,3R)-3-fluoro-N-((R)-1-((1s,4S)-4-(6-fluoroquinolin-4-yl)cyclohexyl)ethyl)-cyclobutanecarboxamide], less than 1000 nM; that for `O=C(Cc1ccc(F)cc1)NCC1CCN(c2ccnc3ccc(F)cc23)CC1` [Example 2, 2-(4-Fluorophenyl)-N-((1-(6-fluoroquinolin-4-yl)piperidin-4-yl)methyl)acetamide], less than 100 nM.
Under `C[C@@H](NC(=O)Cc1ccccc1Cl)[C@H]1CC[C@@H](c2ccnc3ccc(F)cc32)CC1` [Example 6, 2-(2-chlorophenyl)-N-((R)-1-((1s,4S)-4-(6-fluoroquinolin-4-yl)cyclohexyl)ethyl)acetamide] stands less than 1000 nM.
In the case of `C[C@@H](NC(=O)C1(c2ccc(Cl)cc2)CCC1)[C@H]1CC[C@@H](c2ccnc3ccc(F)cc32)CC1` [Example 13, 1-(4-chlorophenyl)-N-((R)-1-((1s,4S)-4-(6-fluoroquinolin-4-yl)cyclohexyl)ethyl)-cyclobutanecarboxamide], the IC50 is less than 100 nM.
Take `Cc1ccc(CC(=O)NCC2CCN(c3ccnc4ccc(F)cc34)CC2)cc1` [Example 1, N-((1-(6-Fluoroquinolin-4-yl)piperidin-4-yl)methyl)-2-(p-tolyl)acetamide]: the IC50 was less than 100 nM.
Under `C[C@@H](NC(=O)[C@H]1C[C@@H](F)C1)[C@H]1CC[C@@H](c2ccnc3ccc(F)cc32)CC1` [Example 19, (1s,3S)-3-fluoro-N-((R)-1-((1s,4S)-4-(6-fluoroquinolin-4-yl)cyclohexyl)ethyl)-cyclobutanecarboxamide] stands less than 1000 nM; under `CO[C@@H](C(=O)N[C@H](C)[C@H]1CC[C@@H](c2ccnc3ccc(F)cc32)CC1)c1ccccc1` [Example 11], less than 100 nM; under `C[C@@H](CNC(=O)c1ccc(Cl)cc1)[C@H]1CC[C@@H](c2ccnc3ccc(F)cc32)CC1` [Example 4, 4-chloro-N—((R)-2-((cis)-4-(6-fluoroquinolin-4-yl)cyclohexyl)propyl)benzamide], less than 1000 nM.
For the molecule `C[C@@H](NC(=O)[C@H]1CC[C@@H](O)CC1)[C@H]1CC[C@@H](c2ccnc3ccc(F)cc32)CC1` [Example 21, (1s,4S)-N-((R)-1-((1s,4S)-4-(6-fluoroquinolin-4-yl)cyclohexyl)ethyl)-4-hydroxycxclohexanecarboxamide], the IC50 is less than 1000 nM.
The result for `COc1ccc(CC(=O)N[C@H](C)[C@H]2CC[C@@H](c3ccnc4ccc(F)cc43)CC2)cc1` [Example 10, N-((R)-1-((1s,4S)-4-(6-fluoroquinolin-4-yl)cyclohexyl)ethyl)-2-(4-methoxyphenyl)acetamide] reads less than 1000 nM; that for `C[C@@H](NC(=O)Cc1ccccc1F)[C@H]1CC[C@@H](c2ccnc3ccc(F)cc32)CC1` [Example 12, 2-(2-fluorophenyl)-N-((R)-1-((1s,4S)-4-(6-fluoroquinolin-4-yl)cyclohexyl)ethyl)acetamide], less than 1000 nM; that for `C[C@@H](NC(=O)C1CC1)[C@H]1CC[C@@H](c2ccnc3ccc(F)cc32)CC1` [Example 16, N-((R)-1-((1s,4S)-4-(6-fluoroquinolin-4-yl)cyclohexyl)ethyl)-cyclopropanecarboxamide], less than 1000 nM.
The result for `O=C(Cc1ccccc1F)NCC1CCN(c2ccnc3ccc(F)cc23)CC1` [Example 3, 2-(2-Fluorophenyl)-N-((1-(6-fluoroquinolin-4-yl)piperidin-4-yl)methyl)acetamide] reads less than 1000 nM; that for `C[C@@H](NC(=O)Cc1cccc(Cl)c1)[C@H]1CC[C@@H](c2ccnc3ccc(F)cc32)CC1` [Example 7, 2-(3-chlorophenyl)-N-((R)-1-((1s,4S)-4-(6-fluoroquinolin-4-yl)cyclohexyl)ethyl)acetamide], less than 1000 nM.
